pIC50: −log10 of the molar value.
System: Mycobacterium tuberculosis H37Rv growth inhibition, no glycerol
Assay: Confirmatory growth inhibition assay, Mycobacterium tuberculosis H37Rv, absence of glycerol (AID 449764);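 further: growth read after 7 days of incubation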
Conditions: for IC90: measured here: IC90 growth inhibition

SMILES	pIC50	IC90 [µM]
CCOc1ccc(NC(=O)CCc2nnc3ccc(N4CCC(C)CC4)nn23)cc1	4.90	14.7
Oc1ccc(Nc2nc(-c3ccc4ccccc4c3)cs2)cc1	4.08	> 100
Cc1ccc(NC(=O)COc2ccc(-n3ccnc3)cc2)cc1Cl	4.35	58.7
CCOC(=O)c1ccc(NC(=O)CCc2nc(-c3ccc(Cl)cc3)no2)cc1	4.32	> 100
Cn1c(=O)c(C(=O)NNC(=O)c2cccc(Cl)c2)c(O)c2ccccc21	5.56	3.14
CCc1nnc(NS(=O)(=O)c2ccc(N/C=C\C(=O)c3cccc(OC)c3)cc2)s1	4.41	53
O=C(CSc1ccc(Cl)cc1)N1CCC(c2nc3ccccc3s2)CC1	4.27	68.3
Cn1cc(NC(=O)CCl)cn1	5.07	16.1
COc1ccc(-n2nnnc2S(=O)(=O)CC(=O)N2CCCCC2)cc1	4.90	20.9
O=C(OCn1ncc(Br)c(Br)c1=O)c1ccc(F)cc1	5.54	4.77
O=c1oc2ccccc2c(O)c1/C=C1\C=Nc2ccccc21	4.41	64.6
COc1ccc(C(CCN2CCCCC2)c2c(OC)cc(OC)c3c(-c4ccccc4)cc(=O)oc23)cc1 (centres undefined)	4.72	26.8
Cc1ccc(/C=C2\C(=O)Nc3ccccc32)o1	5.31	6.56
Cc1ccnc(NC(=O)c2cc3ccccc3o2)c1		> 50
Cc1nc(SCC(=O)NC2CCCCC2)[nH]c(=O)c1C	> 6.70	0.57
Cc1cc(/C=N\NC(=O)c2cccs2)c(C)n1-c1ccc2ncccc2c1	4.43	60.2
Cc1ncsc1CCOC(=O)c1ccc([N+](=O)[O-])cc1	4.70	37.2
O=C(CSC1=NC(=O)C(c2ccccc2)C(=O)N1)Nc1ccccc1Cl (centres undefined)	5.14	24.2
O=C1C(Cl)=C(N2CCOCC2)C(=O)N1c1cccc(Cl)c1	5.19	12.6
Cc1cccc(N(C(=O)c2nsc(Cl)c2Cl)C(C(=O)NC2CCCC2)c2ccc(O)cc2)c1C (centres undefined)	4.51	41
CSc1ccc(C(=O)C2CCCN(C(=O)c3ccc4c(c3)no[n+]4[O-])C2)cc1 (centres undefined)	5.78	2.53
COc1cccc2c1C(CO)N1C(C#N)C3CC(C(=O)O)C(C1C2)N3C (centres undefined)	5.57	3

SMILES	pIC50	IC90 [µM]
O=C1NCN(c2ccccc2)C12CCN(CCCC(c1ccc(F)cc1)c1ccc(F)cc1)CC2	4.36	49.2
O=[N+]([O-])c1ccc(Sc2cc[n+]([O-])c3ccccc23)c([N+](=O)[O-])c1	4.39	56.1
O=c1oc2ccccc2c2c1nc(C(F)(F)F)n2-c1ccccc1	4.86	23.8
C#CCOc1ccc2c(c1)c(C(C)=O)c(C)n2Cc1ccccc1		> 100
CC1=C(/C=C/C(C)=C/C=C/C(C)=C/C(=O)Nc2ccc(O)cc2)C(C)(C)CCC1	4.35	64.7
CCCOc1ccc2oc(=O)c3c(c2c1)CCCN3C(=O)CN1CCN(c2ncccn2)CC1	4.14	> 100
COc1ccc(-c2csc3nc(-c4ccccc4OC)oc(=O)c23)cc1	5.26	22.1
N#Cc1ccc(CN2CCN(CC(=O)NCCc3ccc(Cl)cc3Cl)CC2)cc1	4.35	51.2
CC(/C=C/c1ccccc1)=N\NC(N)=S	5.30	12.3
COc1ccc(-c2cc3nc(CCl)[nH]c(=O)c3s2)cc1	5.23	6.45
O=C(c1ccc(CNc2c(N3CCCC3)c(=O)c2=O)cc1)N1CC=C(c2ccccc2)CC1	5.84	1.62
COc1cc(OC)c(OC)cc1CCC(C)NCCC(c1ccccc1)c1ccccc1 (centres undefined)	4.63	26.7
CCOC(=O)c1c(CC(C)C)csc1NC(=O)CCl	5.58	11.2
Cc1ccc(NC(=O)COC(=O)C(NS(=O)(=O)c2ccc(Cl)cc2)C(C)O)cc1C (centres undefined)	4.79	36.2
CC(C)(C)c1csc(NC(=O)c2c(F)c(F)c(F)c(F)c2F)n1	4.68	29.4
COc1cc(-c2ccc3oc(-c4ccsc4)cc(=O)c3c2)cc(OC)c1OC	4.42	53.6
N#Cc1ccc(OCC(O)CN2CCN(c3ncc(C(F)(F)F)cc3Cl)CC2)cc1 (centres undefined)	4.81	24.3
Cn1cnc(Sc2ncnc3nc[nH]c23)c1[N+](=O)[O-]	4.92	21.1
CN(C)CCCN(C(=O)c1ccc([N+](=O)[O-])s1)c1nc2cc3c(cc2s1)OCCO3	4.45	62.2
O=[N+]([O-])c1ncccc1Oc1nc(-c2cccnc2)nc2ccccc12	6.09	3.87
COc1ccc(Cc2nnc(SCC(=O)N(c3ccccc3)C(C)C)n(N)c2=O)cc1	4.17	97.5
CCOC(=O)/C(=N/Nc1ccccc1)c1csc(Nc2ccccc2)n1	4.38	> 100

SMILES	pIC50	IC90 [µM]
O=C(N/N=C(\c1ccccc1)c1ccccn1)c1ccccc1Cl	4.92	15.5
CCOC(=O)CSc1nc(C)c(C(=O)OCC)s1	5.04	16.2
COc1ccc(/C=N/Nc2nncn2N)cc1Br	4.98	13
CCN1C(=NCCc2ccc(Br)cc2)N[C@@H](c2ccccc2)[C@H](C(=O)OC)[C@H]1C	4.65	25.8
CSc1nc2nc3c(c(=O)n2[nH]1)CCCC3	4.62	> 100
CNC(C)C#Cc1ccc2oc3cc(C)c(C)cc3c(=O)c2c1 (centres undefined)	4.78	35.5
COc1ccc(OC)c(Nc2nc(-c3sc(C)nc3C)cs2)c1	4.15	> 100
C[C@@H]1CN([C@H](C)CO)C(=O)c2cc(NC(=O)Nc3ccc(C(F)(F)F)cc3)ccc2O[C@H]1CN(C)S(=O)(=O)c1cccs1	4.66	24.1
Cn1/c(=N/NC(=O)c2cccc(OC(F)F)c2)sc2ccccc21	5.04	24.1
CCN(CC)c1ccc(/C=C2\SC(=O)N(C(C)C)C2=O)o1	5.54	4.69
O=C(CN1CCN(C(=O)COc2cccc(F)c2)CC1)Nc1ccc(Cl)c(C(F)(F)F)c1	4.30	57.4
Cn1c(NCC(O)c2ccccc2)nc2c1c(=O)n(Cc1ccc(Cl)c(Cl)c1)c(=O)n2C (centres undefined)	4.11	> 100
CC1CCCC/C1=N\NC(=S)NCCc1ccccc1 (centres undefined)	4.37	47.9
C/C(=N\NC(=O)c1cc2ccccc2cc1O)c1ccc(C)o1	4.98	18.7
CCN(CC)c1nc(NN)nc(Nc2ccc(C)c(Cl)c2)n1	5.23	6.79
CC[N+](C)(CC)CCCCOc1ccc2c(c1)C(=O)c1cc(OCCCC[N+](C)(CC)CC)ccc1-2	5.77	2.11
OC(CN1CCN(c2ccccn2)CC1)Cn1c2ccccc2c2ccccc21 (centres undefined)	4.38	55.1
CC(NCCCOc1cccc2ccccc12)c1ccccc1 (centres undefined)	4.60	28
Cc1ccnc(N2CCC(C(=O)Nc3cccc(C(F)(F)F)c3)CC2)n1	4.33	> 50
C=CCc1c(C)nc(SC)nc1Nc1ccc(C(C)=O)cc1	4.46	52.4
CCOC(=O)c1sc2nc(C)nc(SC(C)C(=O)N(C)c3ccccc3)c2c1C (centres undefined)	4.46	44.6
O=[N+]([O-])c1ccc(N2CCCCC2)s1	4.86	18.5

SMILES	pIC50	IC90 [µM]
COc1ccc(C=C2C=C(C(C)(C)C)C(=O)C(C(C)(C)C)=C2)cc1OC	5.31	7.13
Cc1ccc(-c2cc(-c3ccccc3C)[nH]n2)c(O)c1	4.42	> 100
CCOC(=O)c1c(NC(=O)CSc2nc3ccc(OC)cc3[nH]2)sc2c1CC(C)(C)NC2(C)C	4.40	53.7
CSc1cccc(NC(=O)CCS(=O)(=O)c2cccc3nonc23)c1	5.25	9.26
COc1cc2c(C(=O)N3CCN(c4cccc(Cl)c4)CC3)cn(CC(C)C)c(=O)c2cc1OC	4.32	73.4
Cc1cc(/C=C2\SC(=Nc3ccc(F)cc3)NC2=O)c(C)n1-c1ccc(S(N)(=O)=O)cc1	4.64	26.2
CCCCCCCCNC(=O)CCNC(=O)c1ccc(C(C)(C)C)cc1	4.46	41.9
CCCCCCCCNC(C)C(O)c1ccc(SC(C)C)cc1 (centres undefined)	4.60	26.5
CCCCS/C(N)=N/N=C/c1cc(C)ccc1O	4.64	34.1
Cc1cc2oc3ccc(NCCCn4ccnc4)cc3c(=O)c2cc1C	4.63	25.7
COC(=O)C(C)Oc1cc(C)ccc1COc1ccc(-n2nc(C)n(C(F)F)c2=O)cc1 (centres undefined)	4.67	27.5
CCCCCCCCn1c2c(c(=N)c3c1CCC3)CCCC2	4.65	25.8
Cc1ccc(C(=O)N2N=C(c3ccc(NS(C)(=O)=O)cc3)CC2c2cccs2)cc1 (centres undefined)	4.63	37.5
Cc1cc(NC(=O)CCl)no1	5.58	5.19
O=C(CN1CCN(Cc2ccc(Cl)cc2)CC1)N/N=C/C=C/c1ccccc1[N+](=O)[O-]	4.44	45.6
Cc1ccc(C#CC[N+]2(CC#Cc3ccc(C)cc3)CCCCC2)cc1	4.67	24.8
CC(C)(C)C(=O)N1CCN(c2ccc(NC(=O)c3ccc([N+](=O)[O-])o3)cc2)CC1	> 6.70	1.93
Cc1nn(-c2ccccc2)c(C)c1/C=N/NC(=O)c1cc(-c2cccc3ccccc23)n[nH]1	4.32	> 100
OC(COC(c1ccc(Cl)cc1)c1ccc(Cl)cc1)CN1CCc2ccccc2C1 (centres undefined)	4.68	27.6
CN(CCCCCCCCCCN(C)C(=O)Oc1cccc([N+](C)(C)C)c1)C(=O)Oc1cccc([N+](C)(C)C)c1	5.66	3.44
CCCn1c(=N)n(CC(=O)c2ccc(OCC(=O)OC)cc2)c2ccccc21	4.70	35.9
c1ccc(-c2c3ccccc3nc3[nH]c4ccccc4c23)cc1	4.02	> 100

Reference: PubChem BioAssay AID449764 (Southern Research Specialized Biocontainment Screening …, 2010)
